The record followed here is US6660762B2, “Methods and compositions to treat lung diseases” (priority 2001, dated 2003).

The target of data set [1] is T1, Beryllium bound to oxyhemoglobin (Be—Hb) (Homo sapiens, UniProt P68871+P69905).
T1 construct: purchased Sigma H7379
Kind of data set: Chelation of hemoglobin bound beryllium by porphyrins (removal of beryllium from Be-Hb). As to conditions: for effect on amount of beryllium associated with hemoglobin (in words): incubation of Be-Hb with porphyrin. In kind it is binding. As for the experimental part: Beryllium bound to oxyhemoglobin (Be—Hb) was prepared as described in Section 2.1 (above). To determine if the test porphyrins were able to remove beryllium from hemoglobin, porphyrins were added to the hemoglobin solution at 2.5 times the Be concentration of the solution. One hundred μl of 7.1 mM porphyrin solution (or 100 μl of HBS for controls) was added to 1 ml of […]. This mixture was incubated at 37° C. for 30 minutes. Following incubation, the entire mixture was loaded into a Centricon YM-30 molecular weight cutoff filter. This filter retains molecules with a molecular weight >30,000 (i.e., hemoglobin) and allows smaller molecules (i.e. porphyrin, free beryllium) to pass through. The samples were centrifuged to concentrate hemoglobin on the filter and then washed with 500 μl of HBS to remove any porphyrin or beryllium trapped in the hemoglobin concentrate. Hemoglobin concentrates were collected in 100 μl of HBS according to the manufacturer's instructions. The concentrates were then diluted to 3 mls with HBS. Hemoglobin concentration of each sample was determined spectrophotometrically with Drabkin's reagent. Beryllium content of each sample was determined by ICP-AAS.

In the next data set the test system is C3H/HEJ mice. Kind of data set: Toxicity of aerosolized porphyrins in mice (group bodyweight). The data set is classed as in vivo. The source says: Toxicity of the three porphyrins were studied. Porphyrins were delivered via aerosols into mice. It is considered that beryllium-lung burdened mice will provide in vivo data for the removal of beryllium via urinary secretion tests.
Aqueous solutions of the three porphyrins were aerosolized using a constant-flow Pulmo-Mist pump and nebulizer syste and delivered into cages each housing five female 20+ week old C3H/HEJ mice over a period of twenty days. The group bodyweights of these mice were measured each morning prior to aerosol treatment. Regimens included multiple, constant dosing and dose escalation. Mice in cages receiving multiple doses of 9 mg of one of the select porphyrins began to lose weight (up to 14%) by the third day of treatment. […] Treatments with two porphyrins generally reflected lower and delayed evidence of toxicity compared to that observed with one of the select porphyrins (phthalocyanine tetrasulfonate porphyrin, meso-tetra (4-carboxyphenyl) porphyrin, meso-tetra (4-sulfonatophenyl) porphyrin). Younger mice (about 6 weeks old) were generally more tolerant than older mice, but the rank order of porphyrin toxicity was the same.

The next data set has as its target T2, Human hemoglobin (Homo sapiens, UniProt P68871+P69905).
T2 construct: purchased Sigma H7379
Kind of data set: Binding of beryllium to various hemoglobins (Sephadex G-25 separation, ICP-AAS). The settings on record: incubation at 37° C. for 30 minutes; Be:Hb 2.5:1. Here is the method:
These experiments used beryllium nitrate (Aldrich 46,503-8) as a soluble form of beryllium. […] This precipitate was probably an insoluble beryllium phosphate complex. Due to the insolubility of beryllium in PBS at necessary concentrations, experiments were carried out in N-2hydroxyethylpiperazine-N′-2-ethane-sulfonic acid (HEPES)-buffered saline (HBS). HEPES is commonly used as a buffer for biochemical experiments in the physiological pH range. HBS contained 10 mM HEPES, sodium chloride, and potassium chloride, pH 7.4.
Human hemoglobin (Sigma H7379) was dissolved in HBS at a concentration of 40 mg/ml. This hemoglobin was >95% methemoglobin. To reduce the iron and form oxyhemoglobin, 5 mM sodium hydrosulfite was added to the hemoglobin solution. This solution was then dialyzed overnight at 4° C. against HBS to remove residual sodium hydrosulfite. To form carboxyhemoglobin, oxyhemoglobin was gently bubbled with carbon monoxide for 5 minutes. Identity of hemoglobins was confirmed by spectrophotometry prior to experimentation.
Beryllium nitrate was added to a solution of hemoglobin at a molar ratio of 2.5:1 (B e: Hb). This mixture was incubated at 37° C. for 30 minutes. During incubation with beryllium some precipitation of hemoglobin occurred. Precipitate was removed from the samples by centrifugation. Samples of hemoglobin with no beryllium were used as negative controls. Experiments were performed on oxy-, met-, and carboxyhemoglobin.
To isolate beryllium bound to hemoglobin (Be—Hb) from free beryllium, samples were passed through a 1 cm×25 cm Sephadex G-25 column equilibrated in HBS. One milliliter fractions of column eluate were collected. These fractions were diluted to 5 ml with distilled water. The hemoglobin content of each fraction was determined by use of Drabkin's reagent. Beryllium content of each fraction was determined by inductively coupled plasma atomic absorption spectrophotometry (ICP-AAS). A flow chart of this procedure is presented as FIG. 1.

Data set [2] can be described thus: Binding of beryllium to porphyrins by proton NMR in deuterium oxide. The settings on record: no buffer. As for the experimental part:
Initial experiments utilized HBS prepared in deuterium oxide (deuterated water, D2O) to eliminate the protons of water. This was not successful as the HEPES in the buffer also contains protons that interfered with the analysis. Therefore, experiments were conducted with porphyrins 1-5 dissolved in deuterium oxide. Porphyrins were analyzed in the presence and absence of beryllium-Spectra were collected on a 500 MHz JEOL.

“Also recorded” adds a separate entry of the source. Where two headings read alike, the source gives them in different places. Marks after values point to notes of the source that are not given here.

T2 sequence (P69905 2-142 limits assumed): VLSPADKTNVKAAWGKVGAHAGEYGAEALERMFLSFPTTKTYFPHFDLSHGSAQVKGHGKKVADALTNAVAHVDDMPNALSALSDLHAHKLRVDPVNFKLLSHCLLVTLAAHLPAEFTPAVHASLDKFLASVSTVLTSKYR
T2 sequence (P68871 2-147 limits assumed): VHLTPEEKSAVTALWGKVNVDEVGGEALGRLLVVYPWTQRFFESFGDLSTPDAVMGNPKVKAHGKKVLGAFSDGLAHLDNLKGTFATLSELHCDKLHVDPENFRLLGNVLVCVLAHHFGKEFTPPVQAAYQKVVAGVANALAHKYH
T1 sequence (P69905 2-142 limits assumed): as the sequence (P69905 2-142 limits assumed) above
T1 sequence (P68871 2-147 limits assumed): as the sequence (P68871 2-147 limits assumed) above

Regarding `O=C(O)c1ccc(-c2c3nc(c(-c4ccc(C(=O)O)cc4)c4ccc([nH]4)c(-c4ccc(C(=O)O)cc4)c4nc(c(-c5ccc(C(=O)O)cc5)c5ccc2[nH]5)C=C4)C=C3)cc1` [porphyrin 2, meso-tetra (4-carboxyphenyl) porphyrin], the “effect on amount of beryllium associated with hemoglobin (in words)” value (from here on “effect on amount of beryllium associated”) in data set [1] was “reduced the amount of beryllium associated with hemoglobin”. For the same molecule, the “toxicity / safety of aerosol delivery to lungs (in words)” value (shortened to “toxicity / safety of aerosol delivery”) in the data set with C3H/HEJ mice is “maybe safely delivered as aerosols; also recorded: non-toxic”.
As for `O=S(=O)(O)c1ccc(-c2c3nc(c(-c4ccc(S(=O)(=O)O)cc4)c4ccc([nH]4)c(-c4ccc(S(=O)(=O)O)cc4)c4nc(c(-c5ccc(S(=O)(=O)O)cc5)c5ccc2[nH]5)C=C4)C=C3)cc1` [porphyrin 4, meso-tetra (4-sulfonatophenyl) porphyrin], the “effect on amount of beryllium associated” value in data set [1] was “reduced the amount of beryllium associated with hemoglobin”. The “toxicity / safety of aerosol delivery” value in the data set with C3H/HEJ mice is on record as “maybe safely delivered as aerosols”; with C3H/HEJ mice (listed as meso-tetra-(4-sulfonate phenyl)), “non-toxic”.
Consider “Carboxyhemoglobin: oxyhemoglobin gently bubbled with carbon monoxide for 5 minutes”, for which, in the data set with Human hemoglobin, the “Molar ratio (moles Be:moles Hb) Mean” value was 1.88 moles Be:moles Hb and the “μg beryllium/mg hemoglobin Mean” value is recorded as 0.351 μg beryllium/mg hemoglobin.
For “Methemoglobin: Human hemoglobin (Sigma H7379), >95% methemoglobin, iron in the +III oxidation state”, in the data set with Human hemoglobin, the “Molar ratio (moles Be:moles Hb) Mean” value is listed as 0.13a moles Be:moles Hb and the “μg beryllium/mg hemoglobin Mean” value was 0.016^a μg beryllium/mg hemoglobin.
Consider “Oxyhemoglobin: Human hemoglobin reduced with sodium hydrosulfite, iron in the +II oxidation state”, for which, in the data set with Human hemoglobin, the “Molar ratio (moles Be:moles Hb) Mean” value is on record as 2.25 moles Be:moles Hb and the “μg beryllium/mg hemoglobin Mean” value is 0.438 μg beryllium/mg hemoglobin.
hemin [porphyrin 1]: the “effect on amount of beryllium associated” value in data set [1] is recorded as “reduced the amount of beryllium associated with hemoglobin”.
As to “magnesium phthalocyanine tetrasulfonate tetra sodium salt porphyrin [porphyrin 5]”, the “effect on amount of beryllium associated” value in data set [1] was “reduced the amount of beryllium associated with hemoglobin”. Besides, the “change in proton NMR spectra on addition of beryllium” value in data set [2] is “suggest a reaction of beryllium with the porphyrin”.
As to “phthalocyanine tetrasulfonate [porphyrin 3]”, in data set [1], the “effect on amount of beryllium associated” value was “reduced the amount of beryllium associated with hemoglobin”. In addition, the “reduction of the amount of beryllium associated with hemoglobin” value in data set [1] (molar excess of porphyrin, 30 minutes at 37° C.) is 59%. Further, the “toxicity / safety of aerosol delivery” value with C3H/HEJ mice is recorded as “maybe safely delivered as aerosols”. The “change in proton NMR spectra on addition of beryllium” value in data set [2] is recorded as “suggest a reaction of beryllium with the porphyrin”.
